Among the data in BindingDB's records for doi:10.1016/j.bmcl.2015.05.100 (Eli Lilly, 2015) are IC50 values, retold here.

In test [1] the target is Cyclin-dependent kinase 2 (Homo sapiens, UniProt P24941). The test is described as follows: Inhibition of CDK2 (unknown origin) using GST-fused pRb (792 to 928) as substrate preincubated for 2 mins followed by [gamma-32P]-ATP addition measured after 15 mins by beta plate counting analysis.
Test [2] addresses Cyclin-dependent kinase 4 (Homo sapiens, UniProt P11802). The test is described as follows: Inhibition of CDK4 (unknown origin) using GST-fused pRb (792 to 928) as substrate preincubated for 2 mins followed by [gamma-32P]-ATP addition measured after 15 mins by beta plate counting analysis.

Cyclin-dependent kinase 4, sequence (P11802 whole entry, the tested form may be a part): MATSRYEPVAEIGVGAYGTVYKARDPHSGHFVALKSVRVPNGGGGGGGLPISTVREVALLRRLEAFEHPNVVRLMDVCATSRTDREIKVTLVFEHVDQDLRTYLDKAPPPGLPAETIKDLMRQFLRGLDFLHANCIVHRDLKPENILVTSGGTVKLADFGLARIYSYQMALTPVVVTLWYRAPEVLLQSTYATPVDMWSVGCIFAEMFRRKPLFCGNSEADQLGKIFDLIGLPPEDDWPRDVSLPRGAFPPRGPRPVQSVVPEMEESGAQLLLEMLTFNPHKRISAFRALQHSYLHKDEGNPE

In turn, `Cc1c(Br)c(=O)n(C2CCCC2)c2nc(Nc3ccc(N4CCNCC4)cc3)ncc12` [6-bromo-8-cyclopentyl-5-methyl-2-{[4-(piperazin-1-yl)phenyl]amino}-7H,8H-pyrido[2,3-d]pyrimidin-7-one] showed a half-maximal inhibitory concentration (IC50) in test [1] of 439 nM.

The molecule `CC(=O)c1c(C)c2cnc(Nc3ccc(N4CCNCC4)cc3)nc2n(C2CCCC2)c1=O` [8-cyclopentyl-6-acetyl-5-methyl-2-{[4-(piperazin-1-yl)phenyl]amino}-7H,8H-pyrido[2,3-d]pyrimidin-7-one] returned an IC50 in test [2] of 2 nM.

Turning to `O=c1c(Br)cc2cnc(Nc3ccc(N4CCNCC4)cc3)nc2n1C1CCCC1`, the values for the IC50 in test [2] and in test [1] were 2 nM and 43 nM, respectively.
